Measured values: ChEMBL document CHEMBL1148180, “The isolation and structural elucidation of four novel triterpene lactones, pseudolarolides A, B, C, and D, from Pseudolarix kaempferi” (J Nat Prod, 1993)
In brackets after ≈: the same amount, converted by molar mass. Activity calls are given as the source filed them. The rule behind the calls is not given here.

What was measured:
[1] = tested on: P388; assay: Cytotoxicity against mouse P388 cells; assay type: functional, cell-based
[2] = tested on: TE-671; assay: Cytotoxicity against human TE671 cells; assay type: functional, cell-based
[3] = tested on: A549; assay: Cytotoxicity against human A549 cells; assay type: functional, cell-based
[4] = tested on: KB; assay: Cytotoxicity against human KB cells; assay type: functional, cell-based
[5] = tested on: HCT-8; assay: Cytotoxicity against human HCT8 cells; assay type: functional, cell-based
[6] = tested on: Human alphaherpesvirus 2; assay: Antiviral activity against HSV2 in african green monkey Vero cells assessed as inhibition of viral plaque formation; assay type: functional, organism-based

Row | SMILES | EC50 ([1]; p388) | EC50 [2] | EC50 ([3]; a549) | EC50 ([4]; kb) | EC50 ([5]; hct-8) | EC50 ([1]; Mus musculus, P388, read-out: EC50) [mg/L] | Activity [6] | EC50 ([3]; Homo sapiens, A549, read-out: EC50) [mg/L] | EC50 ([4]; Homo sapiens, KB, read-out: EC50) [mg/L] | EC50 ([5]; Homo sapiens, HCT-8, read-out: EC50) [mg/L]
1 | COC(=O)CC[C@]12C[C@]13CC[C@]1(C)[C@H]4[C@H](C)C[C@]5(C[C@@H](C)C(=O)O5)O[C@@H]4C[C@@]1(C)[C@@H]3CC[C@H]2C(C)(C)O [PSEUDOLAROLIDE C] | Not Active | Not Active | Not Active | Not Active | Not Active | – | – | – | – | –
2 | C[C@@H]1C[C@]2(C[C@@H](C)[C@H]3[C@@H](C[C@@]4(C)[C@@H]5CC[C@H]6C(C)(C)OC(=O)CC[C@@]67C[C@@]57CC[C@]34C)O2)OC1=O [PSEUDOLAROLIDE D] | Not Active | Not Active | Not Active | Not Active | Not Active | – | – | – | – | –
3 | CC1=C[C@]2(C[C@@H](C)[C@H]3[C@@H](C[C@@]4(C)[C@@H]5CC[C@H]6C(C)(C)C(=O)CC[C@@]67C[C@@]57CC[C@]34C)O2)OC1=O [PSEUDOLAROLIDE B] | – | Not Active | – | – | – | 0.79 (≈ 1.69 µM) | Active | 0.67 (≈ 1.44 µM) | 0.49 (≈ 1.05 µM) | 0.73 (≈ 1.56 µM)
4 | C[C@@H]1C[C@]2(C[C@@H](C)[C@H]3[C@@H](C[C@@]4(C)[C@@H]5CC[C@H]6C(C)(C)C(=O)CC[C@@]67C[C@@]57CC[C@]34C)O2)OC1=O [PSEUDOLAROLIDE A] | Not Active | Not Active | Not Active | Not Active | Not Active | – | Active | – | – | –
